In patent publication US20190161451A1, “HERBICIDAL PYRIMIDINE COMPOUNDS” (BASF SE, priority 2016, published 2019):

How the values were obtained:
ALOMY = experiment: greenhouse experiment, post-emergence treatment; assay type: in vivo, Alopecurus myosuroides; conditions: post-emergence method, application rate 1000 g/ha, scale from 0 to 100
Text: (§1) The culture containers used were plastic flowerpots containing loamy sand with approximately 3.0% of humus as the substrate. The seeds of the test plants were sown separately for each species.
(§2) For the post-emergence treatment, the test plants were first grown to a height of 3 to 15 cm, depending on the plant habit, and only then treated with the active ingredients which had been suspended or emulsified in water. For this purpose, the test plants were either sown directly and grown in the same containers, or they were first grown separately as seedlings and transplanted into the test containers a few days prior to treatment.
(§3) Depending on the species, the plants were kept at 10-25° C. or 20-35° C., respectively.
(§4) The test period extended over 2 to 4 weeks. During this time, the plants were tended, and their response to the individual treatments was evaluated.
(§5) Evaluation was carried out using a scale from 0 to 100. 100 means no emergence of the plants, or complete destruction of at least the aerial moieties, and 0 means no damage, or normal course of growth. A good herbicidal activity is given at values of at least 70 and a very good herbicidal activity is given at values of at least 85.
(§6) The plants used in the greenhouse experiments were of the following species: […]

AMARE [1] = experiment: greenhouse experiment, post-emergence treatment; assay type: in vivo, Amaranthus retroflexus; conditions: post-emergence method, application rate 1000 g/ha, scale from 0 to 100
Text: as §1, §2, §3, §4, §5, §6

ECHCG [2] = experiment: greenhouse experiment, pre-emergence treatment; assay type: in vivo, Echinocloa crus-galli; conditions: pre-emergence method, application rate 1000 g/ha, scale from 0 to 100
Text: as §1
(§7) For the pre-emergence treatment, the active ingredients, which had been suspended or emulsified in water, were applied directly after sowing by means of finely distributing nozzles.
(§8) The containers were irrigated gently to promote germination and growth and subsequently covered with transparent plastic hoods until the plants had rooted. This cover caused uniform germination of the test plants, unless this had been impaired by the active ingredients.
as §3, §4, §5, §6

APESV = experiment: greenhouse experiment, pre-emergence treatment; assay type: in vivo, Apera spica-venti; conditions: pre-emergence method, application rate 1000 g/ha, scale from 0 to 100
Text: as §1, §7, §8, §3, §4, §5, §6

AMARE [3] = experiment: greenhouse experiment, pre-emergence treatment; assay type: in vivo, Amaranthus retroflexus; conditions: pre-emergence method, application rate 1000 g/ha, scale from 0 to 100
Text: as §1, §7, §8, §3, §4, §5, §6

AVEFA = experiment: greenhouse experiment, post-emergence treatment; assay type: in vivo, Avena fatua; conditions: post-emergence method, application rate 1000 g/ha, scale from 0 to 100
Text: as §1, §2, §3, §4, §5, §6

ECHCG [4] = experiment: greenhouse experiment, post-emergence treatment; assay type: in vivo, Echinocloa crus-galli; conditions: post-emergence method, application rate 1000 g/ha, scale from 0 to 100
Text: as §1, §2, §3, §4, §5, §6

ABUTH = experiment: greenhouse experiment, post-emergence treatment; assay type: in vivo, Abutilon theophrasti; conditions: post-emergence method, application rate 1000 g/ha, scale from 0 to 100
Text: as §1, §2, §3, §4, §5, §6

SETFA = experiment: greenhouse experiment, pre-emergence treatment; assay type: in vivo, Setaria faberi Herrm; conditions: pre-emergence method, application rate 1000 g/ha, scale from 0 to 100
Text: as §1, §7, §8, §3, §4, §5, §6

Row | Compound | herbicidal activity against ALOMY (ALOMY) | herbicidal activity against AMARE (AMARE [1]) | herbicidal activity against ECHCG (ECHCG [2]) | herbicidal activity against APESV (APESV) | herbicidal activity against AMARE (AMARE [3]) | herbicidal activity against AVEFA (AVEFA) | herbicidal activity against ECHCG (ECHCG [4]) | herbicidal activity against ABUTH (ABUTH) | herbicidal activity against SETFA (SETFA)
1 | O=C(O)c1nc(C2CC2)ncc1-c1cccc2c1OCO2 [example 6] | very good (a very good herbicidal activity is given at values of at least 85) | very good (a very good herbicidal activity is given at values of at least 85) | very good (a very good herbicidal activity is given at values of at least 85) | very good (a very good herbicidal activity is given at values of at least 85) | very good (a very good herbicidal activity is given at values of at least 85) |  |  |  | 
2 | O=C(O)c1nc(C2CC2)ncc1-c1c(Cl)ccc2c1OCO2 [example 14] | good (A good herbicidal activity is given at values of at least 70) |  | very good (a very good herbicidal activity is given at values of at least 85) | very good (a very good herbicidal activity is given at values of at least 85) |  | good (A good herbicidal activity is given at values of at least 70) |  |  | 
3 | O=C(O)c1nc(C2CC2)ncc1-c1cc2c(cc1Br)OCO2 [example 25] | good (A good herbicidal activity is given at values of at least 70) |  | very good (a very good herbicidal activity is given at values of at least 85) | very good (a very good herbicidal activity is given at values of at least 85) |  |  | good (A good herbicidal activity is given at values of at least 70) | good (A good herbicidal activity is given at values of at least 70) | 
4 | COC(=O)c1nc(C2CC2)ncc1-c1ccc2ccccc2c1Cl [example 26] |  |  |  |  |  |  |  |  | very good (a very good herbicidal activity is given at values of at least 85)
